Data on 23 molecules can be found in ChEMBL document CHEMBL1151923, “Synthesis and evaluation of a netropsin-proximicin-hybrid library for DNA binding and cytotoxicity” (2009).

Assay [1] relates to HepG2. Briefly: Cytotoxicity against human HepG2 cells after 48 hrs by sulforhodamine B assay. The conditions noted are these: HepG2, 48 h. Type of assay: functional.
For assay [2], the system named is AGS. The assay is described as follows: Cytotoxicity against human AGS cells after 48 hrs by sulforhodamine B assay. Type of assay: functional. For orientation: In SRB staining, fixed cells bind dye roughly in proportion to their protein.
Assay [3] relates to MCF7. Briefly: Cytotoxicity against human MCF7 cells after 48 hrs by sulforhodamine B assay. Type of assay: functional. The following applies: MCF7, 48 h.
The test system of assay [4] is Nucleic Acid. Briefly: Binding affinity to DNA minor groove region CATGGCCATG assessed as melting temperature at 6 uM by thermal denaturation study. Type of assay: nucleic-acid assay.
Assay [5] concerns Nucleic Acid. The assay is described as follows: Binding affinity to DNA minor groove region CATGGCCATG assessed as change in melting temperature at 6 uM by thermal denaturation study. In kind it is nucleic-acid assay.
The subject of assay [6] is Nucleic Acid. The assay is described as follows: Binding affinity to DNA minor groove region CGCAAATTTGCG assessed as melting temperature at 6 uM by thermal denaturation study. In kind it is nucleic-acid assay.
In assay [7] the test system is Nucleic Acid. The assay is described as follows: Binding affinity to DNA minor groove region CGCAAATTTGCG assessed as change in melting temperature at 6 uM by thermal denaturation study. In kind it is nucleic-acid assay.

The structures appear in SMILES notation.

In the case of `COC(=O)Nc1cc(C(=O)Nc2cc(C(=O)NCCc3cnc[nH]3)n(C)c2)n(C)c1`, the GI50 in assay [1], in assay [2] and in assay [3] was over 20 µg/mL throughout.

`Cn1cc(NC(=O)c2cc(NC(=O)CNC(=N)N)cn2C)cc1C(=O)NCCC(=N)N`: the Tm (commonly the temperature at the midpoint of the melting transition) is 48 °C in assay [4] and 69 °C in assay [6]. Moreover, the results for the ΔTm in assay [5] and in assay [7] were 0 °C and 18 °C, respectively.

In the case of `COC(=O)Nc1cc(C(=O)Nc2cc(C(=O)NCCc3ccccc3)n(C)c2)n(C)c1`, the GI50 in assay [1], in assay [2] and in assay [3] was over 20 µg/mL throughout.

For `COC(=O)Nc1cc(C(=O)Nc2cc(C(=O)OCCc3ccccc3)n(C)c2)n(C)c1`, the GI50 (in general, the concentration at which growth is held to half of that of the control) in assay [1] is 2 µM; in assay [2] it was 2.8 µM; in assay [3] it was 13 µM. Also, the melting temperature (Tm) is 47 °C in assay [4] and 71 °C in assay [6]. Moreover, the ΔTm (as a rule, the change in melting temperature against a reference sample) turned out to be 0 °C in assay [5] and 25 °C in assay [7].

As for `COC(=O)Nc1cc(C(=O)Nc2cc(C(=O)NCCC(C)C)n(C)c2)n(C)c1`, the GI50 in assay [1], in assay [2] and in assay [3] was over 20 µg/mL throughout.

In the case of `COC(=O)Nc1coc(C(=O)Nc2coc(C(N)=O)c2)c1` [PROXIMICIN A], the figures for the GI50 in assay [1], in assay [2] and in assay [3] were 2.8 µM, 2 µM and 24.6 µM, respectively.

With `COC(=O)Nc1cc(C(=O)Nc2cc(C(=O)NCCCC(=O)O)n(C)c2)n(C)c1`, the GI50 in assay [1], in assay [2] and in assay [3] was over 20 µg/mL each time.

For `COC(=O)Nc1coc(C(=O)Nc2coc(C(=O)NCCc3c[nH]c4ccccc34)c2)c1` [PROXIMICIN C], the GI50 stood at 1.8 µM in assay [1], 0.6 µM in assay [2] and 20.6 µM in assay [3].

Regarding `Cn1cc(NC(=O)c2cc(NC(=O)NCc3ccccc3)cn2C)cc1C(=O)NCCc1c[nH]c2ccccc12`, the GI50 in assay [1], in assay [2] and in assay [3] was over 20 µg/mL throughout.

With `C=CCOC(=O)Nc1cc(C(=O)Nc2cc(C(=O)NCCc3c[nH]c4ccccc34)n(C)c2)n(C)c1`, the GI50 was 14.3 µM in assay [1], 1.7 µM in assay [2] and 15.4 µM in assay [3].

As to `COC(=O)Nc1cc(C(=O)Nc2cc(C(=O)NCCc3c[nH]c4ccccc34)n(C)c2)n(C)c1`, the figures for the GI50 in assay [1], in assay [2] and in assay [3] were 21.6 µM, 17.7 µM and 24.9 µM, respectively.

For `COC(=O)Nc1cc(C(=O)Nc2cc(C(=O)NCCc3ccc(O)c(O)c3)n(C)c2)n(C)c1`, the GI50 in assay [1], in assay [2] and in assay [3] was over 20 µg/mL throughout.

`Cn1cc(NC(=O)c2cc(NC(=O)OCC(Cl)(Cl)Cl)cn2C)cc1C(=O)NCCc1c[nH]c2ccccc12`: the GI50 in assay [1] turned out to be 4 µM; in assay [2], 10 µM; in assay [3] it was 10.3 µM. For the same molecule, the results for the Tm in assay [4] and in assay [6] were 68 °C and 59 °C, respectively. For the same molecule, the ΔTm came to 21 °C in assay [5] and 11 °C in assay [7].

As to `Cn1cc(NC(=O)c2cc(NC(=O)C(C)(C)C)cn2C)cc1C(=O)NCCc1c[nH]c2ccccc12`, the GI50 was over 40.9 µM in assay [1], 23.5 µM in assay [2] and 17.4 µM in assay [3].

On to `COC(=O)Nc1cc(C(=O)Nc2cc(C(=O)NCCc3c[nH]c4ccc(O)cc34)n(C)c2)n(C)c1`, for which the GI50 in assay [1], in assay [2] and in assay [3] was over 20 µg/mL in each case.

As for `COC(=O)Nc1cc(C(=O)Nc2cc(C(=O)NC(Cc3c[nH]c4ccccc34)C(=O)O)n(C)c2)n(C)c1` (configuration not stated), the GI50 in assay [1], in assay [2] and in assay [3] was over 20 µg/mL in each case.

`Cn1cc(NC(=O)c2cc(NC(=O)OCc3ccccc3)cn2C)cc1C(=O)NCCc1c[nH]c2ccccc12`: the figures for the GI50 in assay [1], in assay [2] and in assay [3] were 5.6 µM, 9.3 µM and 10.8 µM, respectively. Also, the figures for the midpoint of thermal melting (Tm) in assay [4] and in assay [6] were 70 °C and 65 °C, respectively. Also, the ΔTm stood at 23 °C in assay [5] and 17 °C in assay [7].

As to `COC(=O)Nc1cc(C(=O)Nc2cc(C(=O)O)n(C)c2)n(C)c1`, the GI50 in assay [1], in assay [2] and in assay [3] was over 20 µg/mL in each case.

In the case of `Cn1cc(NC(=O)c2cc(NC(=O)OCC3c4ccccc4-c4ccccc43)cn2C)cc1C(=O)NCCc1c[nH]c2ccccc12`, the figures for the GI50 in assay [1], in assay [2] and in assay [3] were 4.6 µM, over 31.9 µM and 18.8 µM, respectively.

Consider `Cn1cc(NC(=O)c2cc(NC(=O)Nc3ccccc3)cn2C)cc1C(=O)NCCc1c[nH]c2ccccc12`, for which the 50% growth inhibitory concentration (GI50) in assay [1] is 14.3 µM; in assay [2] it was 16.8 µM; in assay [3], 19.7 µM. Further, the values for the Tm in assay [4] and in assay [6] were 45 °C and 53 °C, respectively. In addition, the ΔTm stood at 0 °C in assay [5] and 6 °C in assay [7].

For the molecule `CC(=O)Nc1cc(C(=O)Nc2cc(C(=O)NCCc3c[nH]c4ccccc34)n(C)c2)n(C)c1`, the GI50 in assay [1], in assay [2] and in assay [3] was over 20 µg/mL throughout.

`Cn1cc(NC(=O)c2cc(NC(=O)c3cc(NC=O)cn3C)cn2C)cc1C(=O)NCCC(=N)N`: the Tm in assay [4] worked out at 45 °C; in assay [6], 65 °C. Also, the ΔTm was 0 °C in assay [5] and 16 °C in assay [7].

On to `COC(=O)Nc1coc(C(=O)Nc2coc(C(=O)NCCc3ccc(O)cc3)c2)c1` [PROXIMICIN B], for which the GI50 was found to be 23 µM in assay [1], 3.6 µM in assay [2] and 12.1 µM in assay [3].
